According to US20100047166A1, “ANTIBODIES AND RELATED MOLECULES THAT BIND TO 58P1D12 PROTEINS” (priority 2008, published 2010):

Test system: LAPC9-AI prostate tumor xenografts
Assay: Established LAPC9-AI prostate tumor xenografts in tibiae, monotherapy and combination with Carboplatin
Format: in vivo, SCID mice
Conditions: day 33; MAb 2 mg loading then 1.0 mg i.p. two times a week, 7 doses; Carboplatin 40 mg/kg i.v. days 7, 11, 15, 19, 22, 26; vs control antibody
Method: FIG. 16. […] The tumors were allowed to establish for 7 days, at which time the animals were randomized and assigned to four different groups (n=10 in each group) as indicated in the graph. […] Carboplatin (40 mg/kg) was administered to the mice intravenously (i.v.) on days 7, 11, 15, 19, 22 and 26. On day 33 all mice were sacrificed and the tumors were excised and weighed on an electronic balance.
The tumors were allowed to establish for 7 days, at which time the animals were randomized and assigned to four different groups (n=10 in each group). […] Carboplatin (40 mg/kg) was administered to the mice intravenously (i.v.) on days 7, 11, 15, 19, 22 and 26. On day 33 all mice were sacrificed and the tumors were excised and weighed on an electronic balance.

N.N.O=C([O-])C1(C(=O)[O-])CCC1.[Pt+2] [Carboplatin, reference compound]
inhibition of tumor growth (tumor weight): 87%
